Where a name gives a salt, the structure may show the parent alone. The source made the active and inactive calls.
Experiments:
[1] = target: T1, Mitochondrial peptide methionine sulfoxide reductase (Bos taurus, UniProt P54149); type: functional;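 note: absorbance read-out, biochemical high-throughput dose-response screen for MsrA inhibitors, confirmatory; recombinant bovine MsrA coupled to E. coli TrxB with NADPH and selenocystamine; potency is for inhibitors of MsrA activity on DMSO substrate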
T1 sequence (P54149 whole entry): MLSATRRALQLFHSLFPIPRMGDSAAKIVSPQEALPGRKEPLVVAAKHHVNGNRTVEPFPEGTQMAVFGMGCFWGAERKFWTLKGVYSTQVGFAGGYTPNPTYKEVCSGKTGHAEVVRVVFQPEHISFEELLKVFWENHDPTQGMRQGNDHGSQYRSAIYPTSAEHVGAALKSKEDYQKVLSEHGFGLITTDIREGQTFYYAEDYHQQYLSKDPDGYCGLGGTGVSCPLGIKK

[2] = target: 72 kDa type IV collagenase (Homo sapiens, UniProt P08253); assay: Dose Response validation of uHTS RPN11 inhibitor hits using a MMP-2 Fluorescence assay.; type: functional
Sequence of 72 kDa type IV collagenase (P08253 whole entry): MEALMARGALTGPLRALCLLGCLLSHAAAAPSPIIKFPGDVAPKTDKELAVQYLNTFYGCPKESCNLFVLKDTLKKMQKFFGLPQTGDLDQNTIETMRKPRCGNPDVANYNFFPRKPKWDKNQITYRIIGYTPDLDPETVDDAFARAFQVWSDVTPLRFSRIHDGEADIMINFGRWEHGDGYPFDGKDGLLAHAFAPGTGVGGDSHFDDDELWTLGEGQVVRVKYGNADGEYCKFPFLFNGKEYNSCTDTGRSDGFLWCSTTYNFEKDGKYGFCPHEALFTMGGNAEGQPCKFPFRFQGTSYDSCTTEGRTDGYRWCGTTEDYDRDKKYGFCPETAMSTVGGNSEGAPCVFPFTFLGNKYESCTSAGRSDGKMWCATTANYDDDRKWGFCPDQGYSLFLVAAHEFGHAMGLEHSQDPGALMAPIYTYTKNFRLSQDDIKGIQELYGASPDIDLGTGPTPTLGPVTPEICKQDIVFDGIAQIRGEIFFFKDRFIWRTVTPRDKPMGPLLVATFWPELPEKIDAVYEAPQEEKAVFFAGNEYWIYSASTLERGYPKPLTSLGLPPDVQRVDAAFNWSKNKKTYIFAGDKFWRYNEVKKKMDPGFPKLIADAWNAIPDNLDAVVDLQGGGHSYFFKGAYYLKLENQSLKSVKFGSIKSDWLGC

[3] = target: 26S proteasome non-ATPase regulatory subunit 14 (Homo sapiens, UniProt O00487); assay: inhibition of proteasome subunit RPN11 – biochemical, fluorescence polarization, uHTS hits, confirmation (AID 602368); type: functional
Sequence of 26S proteasome non-ATPase regulatory subunit 14 (O00487 whole entry): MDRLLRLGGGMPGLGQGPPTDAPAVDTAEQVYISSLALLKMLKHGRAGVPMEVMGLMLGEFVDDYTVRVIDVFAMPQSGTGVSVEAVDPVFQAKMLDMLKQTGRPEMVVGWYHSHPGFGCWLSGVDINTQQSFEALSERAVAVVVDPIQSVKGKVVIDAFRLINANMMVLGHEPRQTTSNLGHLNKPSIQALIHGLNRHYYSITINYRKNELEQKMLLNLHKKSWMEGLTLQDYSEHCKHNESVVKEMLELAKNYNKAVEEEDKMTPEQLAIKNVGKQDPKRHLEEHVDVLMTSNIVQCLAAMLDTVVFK

[4] = target: Prothrombin (Bos taurus, UniProt P00735); assay: thrombin protease inhibitors – biochemical, fluorescence polarization, uHTS hits, dose response (AID 602369); type: functional
[5] = target: T2, Rac GTPase-activating protein 1 (Homo sapiens, UniProt Q9H0H5); assay: blockers of MgcRacGAP-driven Rac1 GTP hydrolysis – biochemical, ADP Hunter fluorescence, primary and confirmatory, confirmation (AID 624330); type: functional
T2 sequence (Q9H0H5 whole entry): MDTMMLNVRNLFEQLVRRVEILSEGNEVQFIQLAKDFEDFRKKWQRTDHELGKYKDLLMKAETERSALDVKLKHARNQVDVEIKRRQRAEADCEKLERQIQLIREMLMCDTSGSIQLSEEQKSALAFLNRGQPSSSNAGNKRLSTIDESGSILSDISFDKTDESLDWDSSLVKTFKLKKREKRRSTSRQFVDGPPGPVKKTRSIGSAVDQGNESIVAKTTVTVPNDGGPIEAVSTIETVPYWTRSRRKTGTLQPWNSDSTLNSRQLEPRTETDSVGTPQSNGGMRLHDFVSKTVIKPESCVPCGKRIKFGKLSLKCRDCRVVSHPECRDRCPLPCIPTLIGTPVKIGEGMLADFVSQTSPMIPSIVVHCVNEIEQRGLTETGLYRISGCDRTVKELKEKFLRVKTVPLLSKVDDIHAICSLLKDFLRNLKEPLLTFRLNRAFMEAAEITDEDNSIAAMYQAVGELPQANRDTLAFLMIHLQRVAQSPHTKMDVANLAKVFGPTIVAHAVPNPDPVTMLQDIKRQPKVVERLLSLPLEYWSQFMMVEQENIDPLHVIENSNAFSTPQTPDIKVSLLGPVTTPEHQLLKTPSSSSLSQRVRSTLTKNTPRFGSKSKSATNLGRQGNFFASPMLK

[6] = target: T3, Carboxy-terminal domain RNA polymerase II polypeptide A small phosphatase 1 (Homo sapiens, UniProt Q9GZU7); assay: CTDSP1 inhibitors, concentration-response, biochemical, absorbance readout, ultra-high-throughput screen actives (AID 540297); type: functional
T3 sequence (Q9GZU7 whole entry): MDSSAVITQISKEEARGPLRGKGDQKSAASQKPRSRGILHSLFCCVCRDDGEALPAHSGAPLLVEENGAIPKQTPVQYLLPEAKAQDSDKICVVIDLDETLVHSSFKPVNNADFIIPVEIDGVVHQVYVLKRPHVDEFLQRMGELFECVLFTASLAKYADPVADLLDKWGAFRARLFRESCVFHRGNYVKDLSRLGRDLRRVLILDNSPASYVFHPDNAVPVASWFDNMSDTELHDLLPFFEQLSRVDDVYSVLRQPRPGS

[7] = target: T4, Nuclear receptor subfamily 0 group B member 1 (Homo sapiens, UniProt P51843); assay: Luminescence-based cell-based high throughput dose response assay for inhibitors of the orphan nuclear receptor subfamily 0, group B, member 1 (DAX1; NR0B1). [Related pubchem assays (depositor defined):AID504766, AID504790]; type: functional
T4 sequence (P51843 whole entry): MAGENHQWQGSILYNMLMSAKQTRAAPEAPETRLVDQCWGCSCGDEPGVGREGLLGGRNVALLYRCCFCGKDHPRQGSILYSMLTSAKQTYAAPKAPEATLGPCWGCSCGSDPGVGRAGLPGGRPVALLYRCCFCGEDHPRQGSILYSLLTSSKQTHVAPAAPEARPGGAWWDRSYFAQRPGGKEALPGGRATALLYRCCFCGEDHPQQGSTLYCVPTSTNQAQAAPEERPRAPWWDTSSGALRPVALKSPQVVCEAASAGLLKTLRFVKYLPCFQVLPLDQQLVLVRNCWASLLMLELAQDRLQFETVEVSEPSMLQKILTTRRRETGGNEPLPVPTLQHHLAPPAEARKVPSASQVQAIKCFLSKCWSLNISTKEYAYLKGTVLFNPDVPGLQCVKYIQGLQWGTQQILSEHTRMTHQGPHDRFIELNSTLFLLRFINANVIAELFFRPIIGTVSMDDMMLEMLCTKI

[8] = system: HEK293; assay: cells; type: functional, cell-based; settings: Homo sapiens
[9] = target: Voltage-gated inwardly rectifying potassium channel KCNH2 (Homo sapiens, UniProt Q12809); settings: Potency;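 note: confirmatory quantitative high-throughput screen measuring inhibition of hERG channel activity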
Sequence of Voltage-gated inwardly rectifying potassium channel KCNH2 (Q12809 whole entry): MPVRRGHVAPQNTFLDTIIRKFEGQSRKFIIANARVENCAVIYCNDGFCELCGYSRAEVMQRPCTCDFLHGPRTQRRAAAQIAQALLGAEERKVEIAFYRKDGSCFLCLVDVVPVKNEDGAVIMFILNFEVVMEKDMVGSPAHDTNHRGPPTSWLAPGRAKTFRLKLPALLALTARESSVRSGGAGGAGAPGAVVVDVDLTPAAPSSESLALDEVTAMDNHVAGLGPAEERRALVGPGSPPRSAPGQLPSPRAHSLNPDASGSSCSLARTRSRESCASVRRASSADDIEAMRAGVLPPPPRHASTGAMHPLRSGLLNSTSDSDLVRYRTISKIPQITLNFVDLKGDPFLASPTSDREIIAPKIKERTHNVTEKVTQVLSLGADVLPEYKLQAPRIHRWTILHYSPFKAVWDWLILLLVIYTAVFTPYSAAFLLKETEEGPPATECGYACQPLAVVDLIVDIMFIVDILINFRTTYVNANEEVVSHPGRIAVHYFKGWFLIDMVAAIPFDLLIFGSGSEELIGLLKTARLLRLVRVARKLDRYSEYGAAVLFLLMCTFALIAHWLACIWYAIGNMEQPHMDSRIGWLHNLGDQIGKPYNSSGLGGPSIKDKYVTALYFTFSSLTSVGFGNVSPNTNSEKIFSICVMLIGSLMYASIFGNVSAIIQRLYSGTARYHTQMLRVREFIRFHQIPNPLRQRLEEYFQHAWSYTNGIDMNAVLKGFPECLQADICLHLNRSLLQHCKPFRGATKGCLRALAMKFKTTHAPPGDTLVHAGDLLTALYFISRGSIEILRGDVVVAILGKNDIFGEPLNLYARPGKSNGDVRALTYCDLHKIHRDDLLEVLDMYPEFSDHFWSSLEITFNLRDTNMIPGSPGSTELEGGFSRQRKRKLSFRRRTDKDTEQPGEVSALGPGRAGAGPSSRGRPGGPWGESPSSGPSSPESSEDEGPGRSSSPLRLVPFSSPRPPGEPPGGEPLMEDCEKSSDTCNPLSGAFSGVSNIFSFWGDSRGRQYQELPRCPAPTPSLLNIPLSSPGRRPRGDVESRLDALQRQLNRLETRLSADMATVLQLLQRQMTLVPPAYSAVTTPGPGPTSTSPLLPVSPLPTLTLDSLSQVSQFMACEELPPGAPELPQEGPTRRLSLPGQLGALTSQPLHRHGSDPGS

[10] = target: Protein Wnt-3a (Mus musculus, UniProt P27467); assay: antagonism of Wnt3a pathway luciferase reporter – Wnt-LIGHT cells, luminescence, selectivity assay for Gli-SUFU antagonist project, dose response (AID 651570); type: functional; settings: read-out: IC50_Mean;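 note: Wnt-LIGHT reporter cells stimulated with conditioned medium from Wnt3a-producing cells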
Sequence of Protein Wnt-3a (P27467 whole entry): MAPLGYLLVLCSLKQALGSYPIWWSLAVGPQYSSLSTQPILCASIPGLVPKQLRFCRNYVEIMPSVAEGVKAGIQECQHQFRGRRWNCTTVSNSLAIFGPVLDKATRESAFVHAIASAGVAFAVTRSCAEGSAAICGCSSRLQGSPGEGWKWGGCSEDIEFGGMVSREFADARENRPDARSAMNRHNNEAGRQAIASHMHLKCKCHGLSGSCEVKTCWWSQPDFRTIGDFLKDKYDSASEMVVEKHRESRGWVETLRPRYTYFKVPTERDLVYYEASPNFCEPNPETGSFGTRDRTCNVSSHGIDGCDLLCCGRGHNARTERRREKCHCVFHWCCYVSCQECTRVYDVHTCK

[11] = target: T5, CAAX prenyl protease 1 (Saccharomyces cerevisiae S288c, UniProt P47154); assay: yeast CAAX protease Ste24 inhibition – biochemical, S. cerevisiae, plate reader, cherry-pick, dose response (AID 488815)
T5 sequence (P47154 whole entry): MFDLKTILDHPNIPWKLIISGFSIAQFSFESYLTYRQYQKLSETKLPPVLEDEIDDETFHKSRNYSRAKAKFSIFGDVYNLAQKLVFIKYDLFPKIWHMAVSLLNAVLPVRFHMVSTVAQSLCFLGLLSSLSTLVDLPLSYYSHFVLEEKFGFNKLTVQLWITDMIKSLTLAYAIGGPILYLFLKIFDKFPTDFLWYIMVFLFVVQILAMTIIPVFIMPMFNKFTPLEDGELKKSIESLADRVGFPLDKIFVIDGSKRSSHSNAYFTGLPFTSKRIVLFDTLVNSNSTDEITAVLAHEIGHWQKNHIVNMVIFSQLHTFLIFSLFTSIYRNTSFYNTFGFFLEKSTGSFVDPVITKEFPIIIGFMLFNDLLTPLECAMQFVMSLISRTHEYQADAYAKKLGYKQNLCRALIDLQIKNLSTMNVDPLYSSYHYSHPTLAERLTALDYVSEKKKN

[12] = target: T6, CAAX prenyl protease 2 (Homo sapiens, UniProt Q9Y256); assay: inhibition of Ras-converting CAAX protease Rce1 – biochemical, yeast membranes, quenched-peptide fluorescence, cherry-pick, dose response (AID 588849)
T6 sequence (Q9Y256 whole entry): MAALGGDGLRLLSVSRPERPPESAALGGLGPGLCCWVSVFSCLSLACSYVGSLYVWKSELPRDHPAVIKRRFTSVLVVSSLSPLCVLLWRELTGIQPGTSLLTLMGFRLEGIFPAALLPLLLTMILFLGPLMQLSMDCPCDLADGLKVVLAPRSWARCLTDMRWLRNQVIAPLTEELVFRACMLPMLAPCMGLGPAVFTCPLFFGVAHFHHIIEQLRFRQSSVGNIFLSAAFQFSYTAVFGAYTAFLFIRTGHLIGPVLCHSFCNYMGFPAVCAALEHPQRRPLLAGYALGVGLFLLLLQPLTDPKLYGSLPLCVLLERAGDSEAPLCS

[13] = system: Vero; assay: cells; type: functional, cell-based; settings: Chlorocebus sabaeus
[14] = system: Vero; assay: cells; type: functional; settings: Chlorocebus sabaeus
[15] = A Cell Based Secondary Assay To Explore Cytotoxicity of Compounds that Sensitize Mycobacterium Tuberculosis to Beta-Lactam Antibiotics.; type: functional
[16] = target: T7, Corticotropin-releasing factor receptor 2/Corticotropin-releasing factor-binding protein (Homo sapiens, UniProt P24387+Q13324); assay: activators of CRF receptor 2 with binding protein – uHTS hits, confirmation (AID 602473); type: functional; settings: read-out: EC50_Mean
T7 sequence (Q13324 whole entry): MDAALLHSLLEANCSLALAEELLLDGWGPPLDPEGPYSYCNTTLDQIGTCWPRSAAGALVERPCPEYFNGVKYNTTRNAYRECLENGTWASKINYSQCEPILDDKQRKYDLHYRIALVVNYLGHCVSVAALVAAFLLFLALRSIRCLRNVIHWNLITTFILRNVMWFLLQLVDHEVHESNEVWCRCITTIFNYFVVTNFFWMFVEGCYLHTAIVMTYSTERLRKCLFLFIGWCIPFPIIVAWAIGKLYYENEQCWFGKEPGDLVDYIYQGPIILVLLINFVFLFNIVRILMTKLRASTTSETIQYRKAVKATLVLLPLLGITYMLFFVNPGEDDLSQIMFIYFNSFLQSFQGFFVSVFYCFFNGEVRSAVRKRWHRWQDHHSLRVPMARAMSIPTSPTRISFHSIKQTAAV
T7 sequence (P24387 whole entry): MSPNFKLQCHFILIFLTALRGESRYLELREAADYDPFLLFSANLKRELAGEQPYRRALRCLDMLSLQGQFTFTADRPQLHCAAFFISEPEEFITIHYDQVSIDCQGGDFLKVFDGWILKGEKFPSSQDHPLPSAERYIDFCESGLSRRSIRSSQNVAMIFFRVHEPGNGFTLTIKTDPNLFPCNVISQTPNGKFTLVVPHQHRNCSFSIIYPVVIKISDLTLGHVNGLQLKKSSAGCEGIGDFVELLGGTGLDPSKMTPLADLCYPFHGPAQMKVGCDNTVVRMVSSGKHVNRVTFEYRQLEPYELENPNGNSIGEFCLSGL

[17] = target: T7, Corticotropin-releasing factor receptor 2/Corticotropin-releasing factor-binding protein; assay: Dose Response confirmation of uHTS hits for small molecule antagonists of the CRF-binding protein and CRF-R2 receptor complex.; type: functional; settings: read-out: IC50_Mean
[18] = Vero E6 cell cytotoxicity, dose response, cytotoxicity control for non-replicating M. tuberculosis project, secondary assay (AID 492998); type: functional, VeroE6; settings: Vero C1008
[19] = system: Streptococcus sp. 'group A'; assay: Streptococcus pyogenes SK(-)GAS viability under kanamycin – luminescence, BacTiterGlo, confirmation, counter-screen for streptokinase expression inhibitor project, dose response (AID 1900); type: functional, organism-based
[20] = system: Streptococcus; assay: GAS UMAA2166 growth inhibition – luminescence, BacTiterGlo, counter-screen for streptokinase expression inhibitor project, dose response (AID 1915); type: functional, organism-based;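 note: potency for reduction of bacterial viability or growth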
[21] = cells; type: functional
[22] = THP-1 cell cytotoxicity, dose response, cytotoxicity control for non-replicating M. tuberculosis project (AID 489025); type: functional
[23] = microbe, parasite or virus in culture; type: functional; settings: Mycobacterium tuberculosis

Structure (SMILES): C/C(=N\Nc1ccc([N+](=O)[O-])cc1[N+](=O)[O-])c1cccnc1
- IC50 [1]: 155 µM (inactive)

Structure (SMILES): O=[N+]([O-])c1ccc(N/N=C\c2cccn2-c2ccccc2)nc1
- IC50 [2]: > 100 µM (inactive)
- IC50 [3]: 23.5 µM (active)
- IC50 [4]: 29.5 µM (active)

Structure (SMILES): CN1C(=O)/C(=C/C=C2/CCCN2C)N(C)C1=S
- IC50 [5]: 24.2 µM (active)
- IC50 [2]: > 100 µM (inactive)
- IC50 [3]: 8.15 µM (active)
- IC50 [4]: 29 µM (active)

Structure (SMILES): O=C(Nc1nc2ccsc2c(=O)s1)c1ccc(F)cc1Cl
- IC50 [6]: 31.7 µM (active)
- IC50 [7]: > 67.5 µM (inactive)
- IC50 [8]: > 67.5 µM (inactive)

Structure (SMILES): COc1cc2c(cc1OC)-c1c/c(=N\c3c(C)cc(C)cc3C)n(C)c(=O)n1CC2 [TREQUINSIN HYDROCHLORIDE]
- AC50 [9]: 35.5 µM (inconclusive)

Structure (SMILES): FC(F)Oc1ccc(-[n+]2cc(-c3ccccc3)n3c2CCCCC3)cc1
- IC50 [10]: 12.5 µM (active)

Structure (SMILES): CC(C)(CO)Cc1cc(C(C)(C)C)c(O)c(C(C)(C)C)c1
- AC50 [9]: 35.5 µM (inconclusive)

Structure (SMILES): COc1ccc(Cn2c(N)c(S(=O)(=O)c3cccs3)c3nc4ccccc4nc32)cc1
- AC50 [11]: 2.79 µM (active)
- AC50 [12]: 4.33 µM (active)

Structure (SMILES): Cc1ccc(C)c(N2CCN(c3ncnc4c3cnn4-c3ccccc3)CC2)c1
- IC50 [13]: > 25 µM (active)
- CC50 [14]: > 25 µM (active)

Structure (SMILES): COCCNc1nc2c(c(=O)n(C)c(=O)n2C)n1Cc1cccc(C)c1
- IC50 [10]: 1.95 µM (active)

Structure (SMILES): O=C(COc1ccc(Cl)cc1Cl)OCC(=O)N1CCCc2ccccc21
- IC50 [7]: > 67.5 µM (inactive)
- IC50 [8]: > 67.5 µM (inactive)

Structure (SMILES): COC(=O)[C@H](NC(=O)c1cc(-c2ccccc2)nc2ccccc12)c1ccccc1
- AC50 [9]: 0.794 µM (inconclusive)

Structure (SMILES): CCNc1nc(CN2CCCCC2)nc2scc(-c3ccccc3)c12
- IC50 [10]: 5.03 µM (active)
- CC50 [15]: > 40 µM (active)

Structure (SMILES): CC1(C)CC(NCCC(c2ccccc2)c2ccco2)CCO1 (stereo unspecified)
- EC50 [16]: > 53 µM (inactive)
- IC50 [7]: > 67.5 µM (inactive)
- IC50 [8]: > 67.5 µM (inactive)
- IC50 [17]: > 47.1 µM (inactive)

Structure (SMILES): COc1ccccc1NC(=O)CSc1ccc(-c2ccc(-n3cccn3)cc2)nn1
- IC50 [2]: > 100 µM (inactive)
- IC50 [3]: 15.7 µM (active)
- IC50 [4]: > 100 µM (inactive)

Structure (SMILES): O=C(O)CC(NNC(=O)c1ccccc1)C(=O)Nc1ccc([N+](=O)[O-])cc1 (stereo unspecified)
- IC50 [7]: > 67.5 µM (inactive)
- IC50 [8]: > 67.5 µM (inactive)

Structure (SMILES): CC(Oc1ccc2ccccc2c1)C(=O)NNC(=S)NC(=O)c1ccco1 (stereo unspecified)
- CC50 [18]: > 20 µM (active)
- EC50 [19]: 0.074 µM (active)
- EC50 [20]: 0.432 µM (active)
- IC50 [13]: 24.6 µM (active)
- IC50 [21]: 6.03 µM (active)
- CC50 [14]: > 25 µM (active)
- CC50 [22]: 27.3 µM (active)
- CC50 [23]: 39.5 µM (active)

Reference: ChEMBL document CHEMBL1201862, “PubChem BioAssay data set” (2004)
